Patent US20090124502A1, “USE OF SULFURYL FLUORIDE AS A SPROUT […]” (Dow AgroSciences LLC, priority 2007, published 2009)

Key:
Russet potatoes = experiment: Sulfuryl fluoride fumigation of Russet potatoes, physical and sprouting observations (Example 1); assay type: in vivo, Solanum tuberosum; design: key to Tuber Firmness: 1 = firm; 2 = slightly spongy; 3 = very spongy, probably rotten
Experimental: Russet and red potatoes were purchased from an organic retail store and used for this study. These potatoes were exposed to 4 treatments (0 gram-hour/cubic meter [g-h/m^3], 500 g-h/m^3, 1000 g-h/m^3 and 1500 g-h/m^3) in a Styrofoam™ fumigation chamber. The exposure time was 12 hrs at ambient temperature of approximately 25° C. and relative humidity of 50 percent.

organic Russet potatoes = experiment: Sulfuryl fluoride fumigation of stored organic Russet potatoes, physical and sprouting observations (Example 3); assay type: in vivo, Solanum tuberosum; design: Avg Length of sprouts: unit not given here
Experimental: A third study was conducted using stored organic Russet potatoes. These potatoes were exposed to […] (0 g-h/m3, 50 g-h/m^3, 100 g-h/m^3 150 g-h/m^3 and 200 g-h/m^3) in a Styrofoam™ fumigation chamber. The exposure time was 12 hrs at ambient temperature of approximately 25° C. and relative humidity of 50 percent. The treatments were replicated 3 times. Each replicate had approximately 5 lbs of potatoes.

[1] = 500 g-h/m^3, 12 hrs exposure, 1 week after exposure
[2] = 500 g-h/m^3, 12 hrs exposure, 2 weeks after exposure
[3] = 500 g-h/m^3, 12 hrs exposure, 3 weeks after exposure
[4] = 1000 g-h/m^3, 12 hrs exposure, 1 week after exposure
[5] = 1000 g-h/m^3, 12 hrs exposure, 2 weeks after exposure
[6] = 1500 g-h/m^3, 12 hrs exposure, 1 week after exposure
[7] = 1500 g-h/m^3, 12 hrs exposure, 2 weeks after exposure
[8] = 50 g-h/m^3, 7 days after exposure
[9] = 50 g-h/m^3, 21 days after exposure
[10] = 50 g-h/m^3, 31 days after exposure
[11] = 100 g-h/m^3, 7 days after exposure
[12] = 100 g-h/m^3, 21 days after exposure
[13] = 100 g-h/m^3, 31 days after exposure
[14] = 150 g-h/m^3, 7 days after exposure
[15] = 150 g-h/m^3, 21 days after exposure

## O=S(=O)(F)F [sulfuryl fluoride]
Russet potatoes; [1]
  Average length of sprout: <1 mm
  Avg. No. of Sprouts: 1.4
  Tuber Firmness: 1
Russet potatoes; [2]
  Average length of sprout: <1 mm
  Avg. No. of Sprouts: 1.4
  Tuber Firmness: 1
Russet potatoes; [3]
  Average length of sprout: <3 mm
  Avg. No. of Sprouts: 1.4
  Tuber Firmness: 2
Russet potatoes; [4]
  Average length of sprout: <1 mm
  Avg. No. of Sprouts: 0.3
  Tuber Firmness: 1
Russet potatoes; [5]
  Average length of sprout: <1 mm
  Avg. No. of Sprouts: 0.3
  Tuber Firmness: 1
Russet potatoes; [6]
  Average length of sprout: 0 mm
  Avg. No. of Sprouts: 0
  Tuber Firmness: 3
Russet potatoes; [7]
  Average length of sprout: 0 mm
  Avg. No. of Sprouts: 0
  Tuber Firmness: 3
Organic Russet potatoes; 50 g-h/m^3, 21 DAT, compared to 150 and 200 g-h/m^3 treatments
  sprout growth: significant sprout growth
Organic Russet potatoes; [8]
  Avg Length of sprouts: 1.1
  Avg. Number of sprouts: 3.00
  Number of Sprouts: 60.0
  Tuber Firmness: 0.0 MM
Organic Russet potatoes; [9]
  Avg Length of sprouts: 9.1
  Avg. Number of sprouts: 6.3
  Number of Sprouts: 126.0
  Tuber Firmness: 1.0 MM
Organic Russet potatoes; [10]
  Avg Length of sprouts: 21.1
  Avg. Number of sprouts: 6.3
  Number of Sprouts: 126.0
  Tuber Firmness: 2.0 MM
Organic Russet potatoes; 50 to 200 g-h/m^3, Table 13 (21 days after exposure)
  sprout inhibition: dose dependent
Organic Russet potatoes; 100 g-h/m^3, 21 DAT, compared to 150 and 200 g-h/m^3 treatments
  sprout growth: significant sprout growth
Organic Russet potatoes; [11]
  Avg Length of sprouts: 1.0
  Avg. Number of sprouts: 1.9
  Number of Sprouts: 52.0
  Tuber Firmness: 0.0 MM
Organic Russet potatoes; [12]
  Avg Length of sprouts: 6.5
  Avg. Number of sprouts: 2.4
  Number of Sprouts: 88.0
  Tuber Firmness: 1.0 MM
Organic Russet potatoes; [13]
  Avg Length of sprouts: 16.5
  Avg. Number of sprouts: 2.4
  Number of Sprouts: 88.0
  Tuber Firmness: 1.0 MM
Organic Russet potatoes; 150 g-h/m^3, 7 DAT
  sprout growth: slight sprout growth
Organic Russet potatoes; 150 g-h/m^3, 21 DAT observations
  sprout growth: did not grow further
Organic Russet potatoes; [14]
  Avg Length of sprouts: 0.2
  Avg. Number of sprouts: 0.3
  Number of Sprouts: 17.0
  Tuber Firmness: 0.0 MM
Organic Russet potatoes; [15]
  Avg Length of sprouts: 0.2
  Avg. Number of sprouts: 0.3
  Number of Sprouts: 17.0
  Tuber Firmness: 0.0 MM
Organic Russet potatoes; 150 g-h/m^3, 31 days after exposure
  Avg Length of sprouts: 1.2
